The values below come from ChEMBL document CHEMBL1201862, “PubChem BioAssay data set” (2004).

Test systems include SK-MEL-28; SW-620; MDA-N; RPMI-8226; CAKI-1; PC-3; UO-31; SNB-19; CCRF-CEM; Malme-3M; K562; SF-539; NCI-H460; SK-OV-3; NCI-H226; KM12; M14; UACC-62; OVCAR-8; RXF 393.
What all share (experiment): DTP human tumour cell line panel, 48 h

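Briefly, cells in 96-well plates were exposed to five compound concentrations for 48 h, and endpoints were estimated by linear interpolation. The concentration for 50% growth inhibition is given as GI50.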 The source made the active and inactive calls. Cut-off read from the data, not from the text of the source: active = GI50 up to about 1.1 µM and inactive = higher.

Consider `Cc1ccc(C(=O)N(Cc2ccccc2)Cc2ccccc2)cc1/N=N/N(C)C`, for which the GI50 with SK-MEL-28 was 19.3 µM (inactive); with SW-620, 43.1 µM (inactive); with MDA-N, 30.2 µM (inactive); in the test with RPMI-8226, 29 µM (inactive); in the test on CAKI-1, 6.82 µM (inactive); in the test with PC-3, 25.9 µM (inactive). Besides, the GI50 in the test with UO-31 is 15.6 µM (inactive); with SNB-19, 15 µM (inactive); with CCRF-CEM, 24.2 µM (inactive); in the test with Malme-3M, 18.2 µM (inactive); in the test with K562 it was 27.2 µM (inactive); in the test with SF-539, 18.5 µM (inactive). In addition, the GI50 in the test with NCI-H460 was 14.7 µM (inactive); with SK-OV-3, 29.5 µM (inactive); in the test with NCI-H226 it was 19.1 µM (inactive); in the test on KM12 it was 8.32 µM (inactive); with M14, 18.1 µM (inactive); in the test with UACC-62, 13.1 µM (inactive). Besides, the GI50 with OVCAR-8 is 29.9 µM (inactive).

As for `Cc1cc(-c2cc(C(C)(C)C)c(O)c(C(C)(C)C)c2)c(C)cc1-c1cc(C(C)(C)C)c(O)c(C(C)(C)C)c1`, the GI50 in the test on SK-MEL-28, in the test with SW-620, in the test with MDA-N, in the test on RPMI-8226, in the test on CAKI-1 and in the test on PC-3 was > 100 µM (inactive) each time. Further, the GI50 with UO-31, in the test with SNB-19, with CCRF-CEM, in the test on Malme-3M, with K562 and with SF-539 was > 100 µM (inactive) each time. The GI50 in the test on SK-OV-3, in the test on NCI-H226, with KM12, in the test with M14, in the test with UACC-62 and in the test with OVCAR-8 was > 100 µM (inactive) each time.

On to `Clc1cccc(/N=C/C=C/Nc2cccc(Cl)c2)c1`, for which the GI50 in the test on SK-MEL-28 is 16.1 µM (inactive); with SW-620, 22.9 µM (inactive); in the test on MDA-N it was 13.9 µM (inactive); in the test on RPMI-8226, 27.2 µM (inactive); in the test with CAKI-1, 26.1 µM (inactive); in the test with PC-3 it was 15.1 µM (inactive). Moreover, the GI50 is 16 µM (inactive) in the test with UO-31; > 10 µM (inactive) in the test on SNB-19; > 10 µM (inactive) with CCRF-CEM; > 10 µM (inactive) in the test with Malme-3M; 17.2 µM (inactive) in the test with SF-539; 17.7 µM (inactive) in the test with NCI-H460. The GI50 with RXF 393 is 20.8 µM (inactive); in the test on NCI-H226, > 10 µM (inactive); with KM12 it was 14.1 µM (inactive); with OVCAR-8 it was 18 µM (inactive).

Take `COC1C(O)CC(OC2C(C)OC(Oc3cc(O)c4c(O)c5c(cc4c3)C[C@@H]([C@H](OC)C(=O)[C@@H](O)[C@@H](C)O)[C@H](OC3CC(OC4CC(OC6CC(C)(O)C(O)C(C)O6)C(O)C(C)O4)C(O)C(C)O3)C5=O)CC2OC(C)=O)OC1C` (stereo partly drawn): the GI50 in the test on SK-MEL-28 was 32.2 µM (inactive); in the test on SW-620, > 100 µM (inactive); with MDA-N, 97.7 µM (inactive); with RPMI-8226, 60.8 µM (inactive); in the test with CAKI-1, > 100 µM (inactive); with PC-3, > 100 µM (inactive). In addition, the GI50 is > 100 µM (inactive) in the test with UO-31; 33.2 µM (inactive) in the test on SNB-19; > 100 µM (inactive) with CCRF-CEM; 3.47 µM (inactive) in the test on Malme-3M; 40.1 µM (inactive) in the test on K562; 38.6 µM (inactive) with SF-539. For the same molecule, the GI50 in the test with NCI-H460 was 31.6 µM (inactive); in the test on SK-OV-3, > 100 µM (inactive); in the test on NCI-H226, 29 µM (inactive); with KM12, 88.1 µM (inactive); with UACC-62, 29.4 µM (inactive); with OVCAR-8, 67.1 µM (inactive).

Regarding `COc1cc(C2c3cc4c(c(O)c3C(=O)C3CCC(=O)N32)OCO4)cc(OC)c1OC` (stereo not drawn), the GI50 in the test with SK-MEL-28 was 49.5 µM (inactive); in the test with SW-620 it was 45.9 µM (inactive); with MDA-N, 30.4 µM (inactive); with RPMI-8226, 92.7 µM (inactive); with CAKI-1 it was 47.3 µM (inactive); in the test on PC-3, 38.8 µM (inactive). Further, the GI50 is 26.7 µM (inactive) in the test on UO-31; > 100 µM (inactive) in the test on SNB-19; 31.3 µM (inactive) with CCRF-CEM; 39.9 µM (inactive) with Malme-3M; 34.9 µM (inactive) with K562; 46.9 µM (inactive) in the test with SF-539. In addition, the GI50 is 52.6 µM (inactive) in the test with NCI-H460; 46 µM (inactive) with SK-OV-3; 38.3 µM (inactive) with NCI-H226; 51.9 µM (inactive) in the test with KM12; 42.1 µM (inactive) in the test on M14; 30.1 µM (inactive) in the test with UACC-62. The GI50 with OVCAR-8 was > 100 µM (inactive).

As for `CN(C)CS/C(N)=N\C(O)C(Cl)(Cl)Cl` (stereo not drawn), the GI50 in the test on SK-MEL-28, in the test with SW-620, with MDA-N, in the test on CAKI-1, with PC-3 and with UO-31 was > 100 µM (inactive) throughout. In addition, the GI50 with SNB-19 is > 100 µM (inactive); in the test on CCRF-CEM it was 51.6 µM (inactive); with Malme-3M, > 100 µM (inactive); in the test with K562 it was > 100 µM (inactive); with NCI-H460, > 100 µM (inactive); with RXF 393 it was > 100 µM (inactive). For the same molecule, the GI50 in the test with NCI-H226, with KM12, with M14, in the test on UACC-62 and in the test with OVCAR-8 was > 100 µM (inactive) in each case.

With `COC1=CC(=O)c2c(cc(COP(=O)(OCC3OC(n4cc(F)c(=O)[nH]c4=O)CC3O)N(C)CCCCCl)n2C)C1=O` (stereo not drawn), the GI50 in the test on SW-620 is 0.141 µM (active); in the test with MDA-N, 0.41 µM (active); in the test with RPMI-8226, < 0.0237 µM (active); in the test on CAKI-1, 0.0102 µM (active); with PC-3, 0.173 µM (active); in the test with UO-31 it was 0.0605 µM (active). In addition, the GI50 in the test on SNB-19 is 0.951 µM (active); in the test on CCRF-CEM, < 0.01 µM (active); in the test on Malme-3M it was 2.42 µM (inactive); in the test on K562, 1.98 µM (inactive); in the test with SF-539, < 0.0118 µM (active); in the test with NCI-H460, < 0.01 µM (active). The GI50 in the test with RXF 393 is 0.0478 µM (active); in the test with NCI-H226, 0.546 µM (active); in the test with KM12, 10 µM (inactive); in the test on M14 it was 0.136 µM (active); in the test on UACC-62, 0.0736 µM (active); with OVCAR-8, 0.0593 µM (active).

As to `Cc1nc2sccn2c1C(=O)OCCOCCOCCOCCOC(=O)c1c(C)nc2sccn12`, the GI50 in the test with SK-MEL-28 is 90.2 µM (inactive); in the test with SW-620, > 100 µM (inactive); with MDA-N, 36.1 µM (inactive); in the test on RPMI-8226, 52.7 µM (inactive); in the test with CAKI-1, > 100 µM (inactive); in the test on PC-3 it was 63.2 µM (inactive). The GI50 with UO-31 was 70.5 µM (inactive); with SNB-19 it was > 100 µM (inactive); in the test on Malme-3M it was > 100 µM (inactive); in the test on K562, 35.5 µM (inactive); in the test on SF-539 it was 77.4 µM (inactive); with NCI-H460, 80.7 µM (inactive). For the same molecule, the GI50 in the test on RXF 393 was > 100 µM (inactive); with NCI-H226, 16 µM (inactive); in the test on KM12, 49.7 µM (inactive); in the test on M14 it was 43.4 µM (inactive); with UACC-62, 38.6 µM (inactive); in the test on OVCAR-8 it was 39.6 µM (inactive).
